Results: ChEMBL document CHEMBL1137893, “Active site inhibitors of HCV NS5B polymerase. The development and pharmacophore of 2-thienyl-5,6-dihydroxypyrimidine-4-carboxylic acid” (Bioorg Med Chem Lett, 2004)

What follows are compounds tested against RNA-directed RNA polymerase (Hepacivirus hominis) (UniProt O39930) (assay: Percentage inhibition of RNA dependent RNA polymerase Nonstructural protein 5B of hepatitis C virus at 50 uM).
RNA-directed RNA polymerase (Hepacivirus hominis), sequence (O39930 1-591): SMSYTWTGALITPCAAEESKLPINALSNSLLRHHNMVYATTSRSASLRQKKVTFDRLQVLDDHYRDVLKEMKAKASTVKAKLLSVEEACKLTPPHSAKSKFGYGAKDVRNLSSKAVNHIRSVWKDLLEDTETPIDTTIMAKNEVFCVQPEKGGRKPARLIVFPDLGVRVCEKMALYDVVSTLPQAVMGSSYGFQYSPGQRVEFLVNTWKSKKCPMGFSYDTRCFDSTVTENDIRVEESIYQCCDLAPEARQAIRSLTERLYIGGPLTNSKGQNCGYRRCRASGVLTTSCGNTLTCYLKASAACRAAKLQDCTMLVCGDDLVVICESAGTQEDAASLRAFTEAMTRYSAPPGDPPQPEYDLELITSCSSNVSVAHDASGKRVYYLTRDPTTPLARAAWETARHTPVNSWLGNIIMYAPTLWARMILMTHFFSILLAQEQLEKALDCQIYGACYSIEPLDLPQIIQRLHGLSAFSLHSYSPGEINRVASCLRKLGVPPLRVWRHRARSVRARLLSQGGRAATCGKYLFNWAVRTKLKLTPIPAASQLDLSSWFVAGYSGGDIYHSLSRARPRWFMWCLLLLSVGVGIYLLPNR

Row | inhibition [%] | SMILES
1 | < 30 | CS(=O)(=O)Nc1nc(-c2cccs2)nc(C(=O)O)c1O
2 | < 30 | Oc1nc(-c2cccs2)nc(-c2nn[nH]n2)c1O
3 | < 30 | O=C(O)c1nc(-c2cccs2)ncc1O
4 | < 30 | O=C(O)c1[nH]c(-c2cccs2)nc2ncnc1-2
5 | < 30 | O=C(NS(=O)(=O)Cc1ccccc1)c1nc(-c2cccs2)nc(O)c1O
6 | < 30 | COC(=O)c1nc(-c2cccs2)nc(O)c1O
7 | < 30 | O=P(O)(O)c1nc(-c2cccs2)nc(O)c1O

Row | SMILES | inhibition [%]
8 | O=C(O)c1nc(-c2ccccn2)nc(O)c1O | < 30

The compounds below were run against RNA-directed RNA polymerase (Hepacivirus hominis, UniProt O39930) (assay: inhibitory concentration against RNA dependent RNA polymerase Nonstructural protein 5B of hepatitis C virus).
RNA-directed RNA polymerase, sequence (O39930 whole entry): as the sequence (O39930 1-591) above

Row | IC50 [µM] | SMILES
9 | 5.7 | O=C(O)C(=O)/C=C(\O)c1ccccc1
10 | 49 | CS(=O)(=O)c1nc(-c2cccs2)nc(C(=O)O)c1O
11 | 50 | COc1nc(-c2cccs2)nc(C(=O)O)c1O
12 | 30 | O=C(O)c1nc(-c2ccccc2)nc(O)c1O
13 | 6.2 | O=C(NS(=O)(=O)C(F)(F)F)c1nc(-c2cccs2)[nH]c(=O)c1O

Row | SMILES | IC50 [µM]
14 | O=C(O)c1nc(-c2cccs2)nc(O)c1O | 2.6
15 | Cn1c(-c2cccs2)nc(C(=O)O)c(O)c1=O | 4.2
